Results on five compounds are retold here after paper PMC5464911, “SEL120-34A is a novel CDK8 inhibitor active in AML cells with high levels of serine phosphorylation of STAT1 and STAT5 transactivation domains” (Oncotarget, 2017).

One assay relates to MOLM-14 cell line. Set-up: method as in PMID 26416749. Conditions: previously identified; cited from earlier work.
Another assay deals with CDK19/CycC (Homo sapiens, UniProt Q9BWU1). The assay can be described thus: Radiometric protein kinase assay (PanQinase, ProQinase).
The next assay has as its target CDK8/CycC (Homo sapiens, UniProt P49336). The assay is described as above.
The subject of another assay is RNAP II CTD S2 and S5. As to the kind of experiment: RNAP II CTD phosphorylation in HCT-116 cells (WB). The format is cell-based. Conditions: SEL120-34A up to 2.5 μM. On the procedure: 0,1% SDS; 20 mM β-glicerol phosphate; 5 mM NaF; cat. # sc835), α-STAT5-pS726 (1:1000; Abcam, cat. # 1 mM Na3VO4) supplemented with protease inhibitors ab128896), α-STAT5-pY694 (1:1000; Cell Signaling, (Santa Cruz Biotechnology). Tumor samples were cat. #C11C5), α-tubulin (1:4000; Sigma, cat. # T5192) homogenized in 15 sec intervals and kept on ice between and β-actin (1:4000, Sigma cat. # A2066) or GAPDH homogenization cycles. Protein concentration in lysates (1:20000; Sigma, cat. # G9545) was measured by the Bradford assay and adjusted to achieve the same final concentration in each well (20-30 mRNA extraction from xenograft tissue μg protein/well). […] A scoop Unless indicated otherwise, membranes were blocked of a tumor (~25mg) was homogenized with a pestle for 45 min with 2% fat-free dried milk (Rovema, Poland) under liquid nitrogen and immediately processed in Tris-buffered saline (TBS) + 0.05% Tween (TBST), according to the RNeasy Mini Kit protocol (Qiagen). incubated overnight at 4°C with primary antibodies diluted The RNA concentration was measured by a NanoDrop into 2% milk in TBST and washed four times for 10 min spectrophotometer and stored at -80°C for downstream with TBST. […]
with the activities of CDK9 in cells. […] Protein levels of RNAP II CTD pS2, pS5, cMYC and GAPDH were measured by WB.

The next assay relates to STAT5 S726 and Y694. As to the kind of experiment: STAT phosphorylation in SET-2 cells (JAK2 V617F), WB. The format is cell-based. Conditions: 24 hours. On the procedure:
(B) SEL120-34A inhibits IFN-dependent phosphorylation of STAT1 S727. HCT-116 cells stimulated with IFNg for 4 h were treated with increasing doses of SEL120-34A, Flavopiridol (F) or vehicle DMSO (C) to determine changes in the phosphorylation of STAT1 S727 and Y701, as measured by WB. (*) unspecific band. (C) SEL120-34A inhibits serine phosphorylation of STAT1 S727 and STAT5 S726, whereas Ruxolitinib inhibits tyrosine phosphorylation of STAT1 Y701 and STAT5 Y694 in JAK2 V617F cells. SET-2 cells were treated with Ruxolitinib, SEL120-34A or vehicle DMSO (C) for 24 hours and protein levels of pS727, pY701 STAT1 and pS726, pY694 STAT5 were measured by WB. […]
0,1% SDS; 20 mM β-glicerol phosphate; 5 mM NaF; cat. # sc835), α-STAT5-pS726 (1:1000; Abcam, cat. # 1 mM Na3VO4) supplemented with protease inhibitors ab128896), α-STAT5-pY694 (1:1000; Cell Signaling, (Santa Cruz Biotechnology). […] Protein concentration in lysates (1:20000; Sigma, cat. # G9545) was measured by the Bradford assay and adjusted to achieve the same final concentration in each well (20-30 mRNA extraction from xenograft tissue μg protein/well). […] Prior to microarray analyses, the quality of the incubation with secondary donkey anti-rabbit antibodies RNA samples was determined using an Agilent 2100 conjugated to HRP, used at 1:4000 (Cell Signaling, Bioanalyzer (Agilent Technologies, CA, USA). […]

A further assay deals with KG-1. As to the kind of experiment: Extended viability test (AlamarBlue). The format is cell-based. Conditions: Homo sapiens, extended viability assay.
The next assay has as its system SKM-1. The assay can be described thus: Extended viability test (AlamarBlue). The note with it: Homo sapiens, extended viability assay. The format is cell-based. In general terms: Alamar Blue is a resazurin reagent that responds to reducing activity.
In another assay the test system is SIG-M5. As to the kind of experiment: Extended viability test (AlamarBlue). The assay is classed as cell-based. Conditions: Homo sapiens, extended viability assay.
The next assay has as its system GDM-1. The assay can be described thus: Extended viability test (AlamarBlue). Conditions: Homo sapiens, extended viability assay. The format is cell-based.
For another assay, the system named is MOLM13. As to the kind of experiment: Extended viability test (AlamarBlue). Conditions: Homo sapiens, MOLM-13; extended viability assay. The assay is classed as cell-based.
In a further assay the test system is ME-1. As to the kind of experiment: Extended viability test (AlamarBlue). The assay is classed as cell-based. The note with it: extended viability assay.
The next assay deals with AML cell lines. As to the kind of experiment: Broad profiling in a panel of AML cell lines (extended viability tests). Conditions: SKNO-1, KG-1, HEL-60, MOLM-16, MV-4-11, OciAML-2, MOLM-6 and OciAML-3; read-out: GI50 in sensitive responder cell lines. The assay is classed as cell-based. Here is the method: Mean GI50 (day 10) is shown and plotted on the graph (n=3). (D) Levels of phosphorylated STAT5 S726 and […] in AML cells from the panel C were measured by WB. Densitometry for STAT5 S726 and […] signals is shown and plotted on the graph. Cell lines from the panel D were divided into two classes based on the sensitivity to CDK8 inhibitors treatment (responders GI50<1 μM and non-responder GI50>1 μM), mean levels of STAT5 S726 (E) or STAT1 S727 (F) in selected cell lines measured by densitometry were presented on scatter plots. Differences between responder and non-responder were assessed by t-tests (p value is shown).
Cells grown in suspension were plated onto 96-well culture dishes in triplicate at 20000 cells per well in 200 μl of their culture medium, except Kasumi-1 cells, which were plated at 60 000/well. Cells were incubated in the presence of vehicle, 1 μM docetaxel (positive control, Santa Cruz Biotechnology) or 6 serially - diluted concentrations of tested compound. The compound effect was determined by AlamarBlue measurement. On days 3, 6-7 and 10, an equal volume from all wells was also split-back with fresh media supplemented with tested compound, resulting in a cell density for the vehicle well that matched the initial seeding density. […]

For another assay, the system named is Oci-AML5. The assay can be described thus: Extended viability test (AlamarBlue). The format is cell-based. Conditions: Homo sapiens, OCI-AML-5; extended viability assay.
A further assay deals with EOL-1. As to the kind of experiment: Extended viability test (AlamarBlue). The assay is classed as cell-based. Conditions: Homo sapiens, EOL1; extended viability assay.
For the next assay, the system named is Kasumi-1. The assay can be described thus: Extended viability test (AlamarBlue). The format is cell-based. Conditions: Homo sapiens, extended viability assay.
A further assay relates to MV4-11. The assay can be described thus: Extended viability test (AlamarBlue). Conditions: Homo sapiens, extended viability assay. The format is cell-based.
A further assay concerns Oci-AML3. As to the kind of experiment: Extended viability test (AlamarBlue). The assay is classed as cell-based. The note with it: Homo sapiens, OCI-AML-3; extended viability assay.
Another assay concerns PL-21. As to the kind of experiment: Extended viability test (AlamarBlue). The format is cell-based. The note with it: extended viability assay.
Another assay has as its system MOLM16. As to the kind of experiment: Extended viability test (AlamarBlue). The format is cell-based. The note with it: extended viability assay.

Chain of CDK8/CycC (P49336 whole entry): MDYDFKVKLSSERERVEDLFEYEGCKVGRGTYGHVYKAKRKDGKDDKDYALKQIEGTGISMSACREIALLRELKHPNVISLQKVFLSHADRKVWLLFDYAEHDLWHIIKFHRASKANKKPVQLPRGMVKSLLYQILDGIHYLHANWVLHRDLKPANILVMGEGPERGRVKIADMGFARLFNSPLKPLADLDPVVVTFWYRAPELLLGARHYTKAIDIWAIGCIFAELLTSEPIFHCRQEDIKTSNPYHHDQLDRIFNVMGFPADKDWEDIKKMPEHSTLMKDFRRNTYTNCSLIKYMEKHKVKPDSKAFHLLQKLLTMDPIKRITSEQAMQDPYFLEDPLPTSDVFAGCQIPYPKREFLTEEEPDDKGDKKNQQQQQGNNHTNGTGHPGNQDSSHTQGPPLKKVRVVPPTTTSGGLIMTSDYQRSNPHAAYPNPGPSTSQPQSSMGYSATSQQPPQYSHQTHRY
Chain of CDK8/CycC (P24863 whole entry partner): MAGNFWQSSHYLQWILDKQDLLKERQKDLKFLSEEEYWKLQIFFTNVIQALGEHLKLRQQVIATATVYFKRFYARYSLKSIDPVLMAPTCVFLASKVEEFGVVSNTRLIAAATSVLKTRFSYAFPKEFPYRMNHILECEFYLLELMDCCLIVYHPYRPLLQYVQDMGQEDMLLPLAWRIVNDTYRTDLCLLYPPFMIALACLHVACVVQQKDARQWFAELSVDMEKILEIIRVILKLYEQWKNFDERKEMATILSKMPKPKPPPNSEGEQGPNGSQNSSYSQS
Chain of CDK19/CycC (Q9BWU1 whole entry): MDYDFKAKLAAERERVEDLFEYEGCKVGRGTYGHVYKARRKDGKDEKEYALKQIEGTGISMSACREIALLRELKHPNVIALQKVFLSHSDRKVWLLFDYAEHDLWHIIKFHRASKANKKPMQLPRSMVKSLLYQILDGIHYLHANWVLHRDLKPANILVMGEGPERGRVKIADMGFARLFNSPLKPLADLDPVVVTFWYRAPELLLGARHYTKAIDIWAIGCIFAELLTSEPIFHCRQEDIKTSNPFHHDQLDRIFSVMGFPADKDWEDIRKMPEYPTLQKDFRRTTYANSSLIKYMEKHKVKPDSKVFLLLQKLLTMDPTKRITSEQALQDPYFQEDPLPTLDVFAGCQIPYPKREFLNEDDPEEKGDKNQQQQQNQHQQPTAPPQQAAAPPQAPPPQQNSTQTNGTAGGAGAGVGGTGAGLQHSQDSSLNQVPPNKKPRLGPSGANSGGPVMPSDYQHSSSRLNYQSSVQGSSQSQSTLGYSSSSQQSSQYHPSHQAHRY
Chain of CDK19/CycC (P24863 whole entry partner): as the sequence (P24863 whole entry partner) above
Source text for CDK19/CycC: (§1) A radiometric protein kinase assay (PanQinase® Activity Assay, ProQinase) was used for measuring activities of CDK8/CycC and CDK19/CycC protein kinases.
Source text for CDK8/CycC: as §1

As for `CN(C)[C@H]1C[C@@]23CC[C@@]4(O2)C(=CC[C@]2(C)[C@@H](c5ccc6ccncc6c5)CC[C@H]24)C=C3[C@@H](O)[C@@H]1O` [CA, Cortistatin A], in the assay on MOLM-14 cell line, the “sensitivity of MOLM-14 cell line to treatment” value is given as “sensitive”.

For orientation: IC50 means the point on the concentration scale where inhibition reaches its midpoint. Read a high IC50 as weaker potency. For `Cn1cc(-c2ccc(-c3cncc(Cl)c3N3CCC4(CCNC4=O)CC3)cc2)cn1` [CCT251545, reference compound], the values for the 50% inhibitory concentration (IC50) at CDK19/CycC and at CDK8/CycC were 0.0144 µM and 0.0042 µM, respectively.

Consider `CN1CC[C@H](c2c(O)cc(O)c3c(=O)cc(-c4ccccc4Cl)oc23)[C@H](O)C1` [Flavopiridol, reference compound], for which the “RNAP II CTD phosphorylation at S2 and S5” value with RNAP II CTD S2 and S5 was “active”.

As to `N#CC[C@H](C1CCCC1)n1cc(-c2ncnc3[nH]ccc23)cn1` [Ruxolitinib, reference compound], in the assay with STAT5 S726 and Y694, the “STAT5 S726 phosphorylation” value is reported as “unaffected” and the “STAT5 Y694 phosphorylation” value is given as “inhibition”.

Usually GI50 stands for the concentration giving 50% growth inhibition. As for `CN1CCN(C(=O)c2ccc3cc(CCNc4ncnc5ccc(C#N)cc45)ccc3c2)CC1` [Senexin B, reference compound], the GI50 came to 0.15 µM with KG-1; 5 µM in the assay on SKM-1; 5 µM in the assay with SIG-M5; 0.27 µM in the assay on GDM-1; 5 µM with MOLM13; 0.17 µM in the assay with ME-1. The GI50 in the assay with AML cell lines is less than 1 µM; in the assay with Oci-AML5, 0.07 µM; in the assay with EOL-1, 0.96 µM; in the assay on Kasumi-1, 5 µM; with MV4-11, 0.23 µM; in the assay on Oci-AML3, 0.36 µM. Moreover, the 50% growth inhibitory concentration (GI50) was found to be 2.6 µM in the assay on PL-21 and 0.34 µM in the assay on MOLM16. At CDK8/CycC, this compound gave a half-maximal inhibitory concentration (IC50) of 0.0173 µM.
